This is an account of results in US8129398B2 (priority 2008, dated 2012).

SMILES strings stand for the structures. pIC50: −log10 of the molar value.

The target in one assay is T1, HIV-integrase (Human immunodeficiency virus type 1 group M subtype B, UniProt P12497).
T1 construct: Recombinant integrase (0.26 ng) was incubated with the beads
In words: HIV-Integrase Inhibition Activity (SPA bead integration assay with P33 labeled target DNA). It is filed as biochemical. Particulars: in vitro activity, recombinant integrase, class symbols. The gist of the method:
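Biotinylated substrate DNA on streptavidin SPA beads loaded with recombinant integrase (90 min, 37° C), washed, then inhibitor plus 0.1 fmol P33-labeled target DNA added. Reaction stopped with 10 mM EDTA; integration measured as CPM by scintillation, giving IC50 ranks.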
Take `CC(=O)N[C@H]1c2nc(C(=O)NCc3ccc(F)cc3)c(O)c(=O)n2C[C@H]2CC[C@]1(C)C2(C)C` [Example 184, (7S,10R,11R)-11-(Acetylamino)-N-(4-fluorobenzyl)-3-hydroxy-10,12,12-trimethyl-4-oxo-6,7,8,9,10,11-hexahydro-4H-7,10-methanopyrimido[1,2-a]azocine-2-carboxamide]: the pIC50 is 7.00 to 8.00.

Regarding `CC1(C)[C@@H]2CC[C@@]1(C)[C@@H](NS(C)(=O)=O)c1nc(C(=O)NCc3ccc(F)cc3)c(O)c(=O)n1C2` [Example 185, (7S,10R,11R)—N-(4-Fluorobenzyl)-3-hydroxy-10,12,12-trimethyl-11-((methylsulfonyl)amino)-4-oxo-6,7,8,9,10,11-hexahydro-4H-7,10-methanopyrimido[1,2-a]azocine-2-carboxamide], the pIC50 was less than 7.00.

Staying with this assay, now noted: recombinant integrase, class symbols; read-out: in vitro activity.
Take `Cc1nn(C)cc1CN(C)C(=O)C(=O)N(C)C12CCC(CC1)Cn1c2nc(C(=O)NCc2ccc(F)cc2)c(O)c1=O` [Example 169, N-((1,3-Dimethyl-1H-pyrazol-4-yl)methyl)-N′-(2-((4-fluorobenzyl)carbamoyl)-3-hydroxy-4-oxo-6,7,8,9-tetrahydro-7,10-ethanopyrimido[1,2-a]azepin-10(4H)-yl)-N,N′-dimethylethanediamide]: the pIC50 was greater than 8.00.

Consider `Cc1cc(CNC(=O)c2nc3n(c(=O)c2O)CC2CCC3(N(C)C(=O)C(=O)N(C)Cc3cn(C)nc3C)CC2)ccc1F` [Example 170, N-((1,3-Dimethyl-1H-pyrazol-4-yl)methyl)-N′-(2-((4-fluoro-3-methylbenzyl)carbamoyl)-3-hydroxy-4-oxo-6,7,8,9-tetrahydro-7,10-ethanopyrimido[1,2-a]azepin-10(4H)-yl)-N,N′-dimethylethanediamide], for which the pIC50 is greater than 8.00.

Consider `Cc1c(CN(C)C(=O)C(=O)N(C)C23CCC(CC2)Cn2c3nc(C(=O)NCc3ccc(F)cc3)c(O)c2=O)cnn1C` [Example 171, N-((1,5-Dimethyl-1H-pyrazol-4-yl)methyl)-N′-(2-((4-fluorobenzyl)carbamoyl)-3-hydroxy-4-oxo-6,7,8,9-tetrahydro-7,10-ethanopyrimido[1,2-a]azepin-10(4H)-yl)-N,N′-dimethylethanediamide], for which the pIC50 is greater than 8.00.

With `Cc1cc(CNC(=O)c2nc3n(c(=O)c2O)CC2CCC3(N(C)C(=O)C(=O)N(C)Cc3cnn(C)c3C)CC2)ccc1F` [Example 172, N-((1,5-Dimethyl-1H-pyrazol-4-yl)methyl)-N′-(2-((4-fluoro-3-methylbenzyl)carbamoyl)-3-hydroxy-4-oxo-6,7,8,9-tetrahydro-7,10-ethanopyrimido[1,2-a]azepin-10(4H)-yl)-N,N′-dimethylethanediamide], the pIC50 is greater than 8.00.

`CCN(C(=O)C(=O)N(C)C)C12CCC(CC1)Cn1c2nc(C(=O)NCc2ccc(F)cc2)c(O)c1=O` [Example 173, N-Ethyl-N-(2-((4-fluorobenzyl)carbamoyl)-3-hydroxy-4-oxo-6,7,8,9-tetrahydro-7,11-ethanopyrimido[1,2-a]azepin-10(4H)-yl)-N′,N′-dimethylethanediamide]: the pIC50 was greater than 8.00.

As to `CN(C)C(=O)C(=O)N(CCO)C12CCC(CC1)Cn1c2nc(C(=O)NCc2ccc(F)cc2)c(O)c1=O` [Example 175, N-(2-((4-Fluorobenzyl)carbamoyl)-3-hydroxy-4-oxo-6,7,8,9-tetrahydro-7,10-ethanopyrimido[1,2-a]azepin-10(4H)-yl)-N-(2-hydroxyethyl)-N′,N′-dimethylethanediamide], the pIC50 is greater than 8.00.

`CN(C)C(=O)C(=O)OCCNC12CCC(CC1)Cn1c2nc(C(=O)NCc2ccc(F)cc2)c(O)c1=O` [Example 176]: the pIC50 is 7.00 to 8.00.

For `CN(C)C(=O)C(=O)NC12CCC(C)(CC1)Cn1c2nc(C(=O)NCc2ccc(F)cc2)c(O)c1=O` [Example 180, Ethanediamide, N′-[2-[[[(4-fluorophenyl)methyl]amino]carbonyl]-6,7,8,9-tetrahydro-3-hydroxy-7-methyl-4-oxo-7,10-ethanopyrimido[1,2-a]azepin-10(4H)-yl]-N,N-dimethyl-], the pIC50 is greater than 8.00.

Turning to `CC1(C)[C@@H]2CC[C@@]1(C)[C@@H](NC(=O)OCc1ccccc1)c1nc(C(=O)NCc3ccc(F)cc3)c(O)c(=O)n1C2` [Example 181, Benzyl((7S,10R,11R)-2-((4-fluorobenzyl)carbamoyl)-3-hydroxy-10,12,12-trimethyl-4-oxo-6,7,8,9,10,11-hexahydro-4H-7,10-methanopyrimido[1,2-a]azocin-11-yl)carbamate], the pIC50 is 7.00 to 8.00.

As for `CC1(C)[C@@H]2CC[C@@]1(C)[C@@H](N)c1nc(C(=O)NCc3ccc(F)cc3)c(O)c(=O)n1C2` [Example 182, (7S,10R,11R)-11-Amino-N-(4-fluorobenzyl)-3-hydroxy-10,12,12-trimethyl-4-oxo-6,7,8,9,10,11-hexahydro-4H-7,10-methanopyrimido[1,2-a]azocine-2-carboxamide], the pIC50 was less than 7.00.

For `CN(C)C(=O)C(=O)N[C@H]1c2nc(C(=O)NCc3ccc(F)cc3)c(O)c(=O)n2C[C@H]2CC[C@]1(C)C2(C)C` [Example 183, N′-((7S,10R,11R)-2-((4-Fluorobenzyl)carbamoyl)-3-hydroxy-10,12,12-trimethyl-4-oxo-6,7,8,9,10,11-hexahydro-4H-7,10-methanopyrimido[1,2-a]azocin-11-yl)-N,N-dimethylethanediamide], the pIC50 was 7.00 to 8.00.

With `CN(C)C(=O)C(=O)NC12CCCC(Cn3c1nc(C(=O)NCc1ccc(F)cc1)c(O)c3=O)C2` (stereo not shown) [Example 186, Ethanediamide, N′-[2-[[[(4-fluorophenyl)methyl]amino]carbonyl]-7,8,9,10-tetrahydro-3-hydroxy-4-oxo-7,11-methano-4H-pyrimido[1,2-a]azocin-11(6H)-yl]-N,N-dimethyl-], the pIC50 was greater than 8.00.

`CC(=O)NC12CCCC(Cn3c1nc(C(=O)NCc1ccc(F)cc1)c(O)c3=O)C2` (stereo not shown) [Example 187, 7,11-Methano-4H-pyrimido[1,2-a]azocine-2-carboxamide, 11-(acetylamino)-N-[(4-fluorophenyl)methyl]-6,7,8,9,10,11-hexahydro-3-hydroxy-4-oxo-]: the pIC50 was greater than 8.00.

Take `CN(C)C(=O)C(=O)NC12CCC(Cn3c1nc(C(=O)NCc1ccc(F)cc1)c(O)c3=O)C2` (stereo not shown) [Example 188, Ethanediamide, N′-[2-[[[(4-fluorophenyl)methyl]amino]carbonyl]-6,7,8,9-tetrahydro-3-hydroxy-4-oxo-7,11-methanopyrimido[1,2-a]azepin-10(4H)-yl]-N,N-dimethyl-]: the pIC50 was greater than 8.00.

Regarding `O=C(NC12CCC(Cn3c1nc(C(=O)NCc1ccc(F)cc1)c(O)c3=O)C2)OCc1ccccc1` (stereo not shown) [Example 189, Carbamic acid, [2-[[[(4-fluorophenyl)methyl]amino]carbonyl]-6,7,8,9-tetrahydro-3-hydroxy-4-oxo-7,10-methanopyrimido[1,2-a]azepin-10(4H)-yl]-, phenylmethyl ester], the pIC50 was greater than 8.00.

Regarding `NC12CCC(Cn3c1nc(C(=O)NCc1ccc(F)cc1)c(O)c3=O)C2` (stereo not shown) [Example 190, 7,10-Methanopyrimido[1,2-a]azepine-2-carboxamide, 10-amino-N-[(4-fluorophenyl)methyl]-4,6,7,8,9,10-hexahydro-3-hydroxy-4-oxo-], the pIC50 is 7.00 to 8.00.

Turning to `CC(=O)NC12CCC(Cn3c1nc(C(=O)NCc1ccc(F)cc1)c(O)c3=O)C2` (stereo not shown) [Example 191, 7,10-Methanopyrimido[1,2-a]azepine-2-carboxamide, 10-(acetylamino)-N-[(4-fluorophenyl)methyl]-4,6,7,8,9,10-hexahydro-3-hydroxy-4-oxo-], the pIC50 is greater than 8.00.

Turning to `CS(=O)(=O)NC12CCC(Cn3c1nc(C(=O)NCc1ccc(F)cc1)c(O)c3=O)C2` (stereo not shown) [Example 192, 7,10-Methanopyrimido[1,2-a]azepine-2-carboxamide, N-[(4-fluorophenyl)methyl]-4,6,7,8,9,10-hexahydro-3-hydroxy-10-[(methylsulfonyl)amino]-4-oxo-], the pIC50 is greater than 8.00.

Turning to `CNC(=O)C(=O)NC12CCC(Cn3c1nc(C(=O)NCc1ccc(F)cc1)c(O)c3=O)C2` (stereo not shown) [Example 193, Ethanediamide, N-[2-[[[(4-fluorophenyl)methyl]amino]carbonyl]-6,7,8,9-tetrahydro-3-hydroxy-4-oxo-7,10-methanopyrimido[1,2-a]azepin-10(4H)-yl]-N′-methyl-], the pIC50 is greater than 8.00.

For the compound `O=C(NC12CCC(Cn3c1nc(C(=O)NCc1ccc(F)c(Cl)c1)c(O)c3=O)C2)OCc1ccccc1` (stereo not shown) [Example 194, Carbamic acid, [2-[[[(3-chloro-4-fluorophenyl)methyl]amino]carbonyl]-6,7,8,9-tetrahydro-3-hydroxy-4-oxo-7,10-methanopyrimido[1,2-a]azepin-10(4H)-yl]-, phenylmethyl ester], the pIC50 is greater than 8.00.

With `CN(C)C12CCC(Cn3c1nc(C(=O)NCc1ccc(F)cc1)c(O)c3=O)C2` (stereo not shown) [Example 195, 7,10-Methanopyrimido[1,2-a]azepine-2-carboxamide, 10-(dimethylamino)-N-[(4-fluorophenyl)methyl]-4,6,7,8,9,10-hexahydro-3-hydroxy-4-oxo-], the pIC50 was 7.00 to 8.00.

`Cc1cc(CNC(=O)c2nc3n(c(=O)c2O)CC2CCC3(NC(=O)C(=O)N(C)C)C2)ccc1F` (stereo not shown) [Example 196, Ethanediamide, N′-[2-[[[(4-fluoro-3-methylphenyl)methyl]amino]carbonyl]-6,7,8,9-tetrahydro-3-hydroxy-4-oxo-7,10-methanopyrimido[1,2-a]azepin-10(4H)-yl]-N,N-dimethyl-]: the pIC50 is greater than 8.00.

For `CN(C)C(=O)C(=O)NC12CCC(CCn3c1nc(C(=O)NCc1ccc(F)cc1)c(O)c3=O)C2` (stereo not shown) [Example 199, Ethanediamide, N′-[2-[[[(4-fluorophenyl)methyl]amino]carbonyl]-7,8,9,10-tetrahydro-3-hydroxy-4-oxo-8,11-methano-4H-pyrimido[1,2-a]azocin-11(6H)-yl]-N,N-dimethyl-], the pIC50 is greater than 8.00.
